PubChem BioAssay AID652053 (Broad Institute, 2013)

What follows are molecules tested on Huh7 psiCHECK-miR122 Renilla luciferase reporter, 48 h (assay: miR-122 inhibitors in Huh7 reporter cells, dose response, cell-based, Huh7 psiCHECK-miR122, Renilla luciferase, cherry-pick (AID 652053)).

Point of comparison: `NC(=O)Cn1cc(/C=N\NS(=O)(=O)c2ccc(Cl)cc2)c2ccccc21`, AC40 3.75 µM. Against it:
- CCc1c(C(=O)NCc2ccccc2Cl)[nH]c(C)c1C(C)=O — 2.7-fold lower, 1.38 µM
- CCOc1ccc(-c2cc(N)n(S(=O)(=O)c3ccc(OC)c(OC)c3)n2)cc1 — within 1.5-fold, 4.11 µM
- O=S(=O)(NCC1CCCO1)c1cc(Br)c(Br)s1 (stereo unspecified) — within 1.5-fold, 4 µM
- CC1=CC(C)(C)N(S(=O)(=O)c2ccc(C)cc2)c2cc(C)ccc21 — within 1.5-fold, 3.72 µM
- CCN1C(=O)c2cccc3c(S(=O)(=O)N(C(=O)c4cccnc4)c4ccc(OC)cc4)ccc1c23 — 3.1-fold lower, 1.21 µM
- CCc1ccc(NS(=O)(=O)c2cc(OC)ccc2OC)cc1 — 4.3-fold lower, 0.866 µM
- COc1ccc(C(=O)N2C[C@@H]3[C@H](c4ccccc42)[C@H](CO)N3Cc2ccc3c(c2)OCO3)cc1 — within 1.5-fold, 5.57 µM
- Cc1ccc(-c2cnc3c(c2)C(=O)N([C@H](C)CO)C[C@@H](C)[C@H](CN(C)Cc2ccccc2F)O3)cc1 — within 1.5-fold, 2.64 µM
- COc1cccc(CN(C(=O)Cc2c[nH]c3ccccc23)C(C(=O)NC2CCCCC2)c2cccs2)c1 (stereo unspecified) — 1.6-fold higher, 6.05 µM
- COc1cccc(C(O)c2ncc(-c3cccc(F)c3)[nH]2)c1 (stereo unspecified) — 4.6-fold higher, 17.3 µM
- O=C1NC(=O)C(CCc2ccncc2)(Cc2cccc(Cl)c2Cl)C(=O)N1c1ccc(Br)cc1 (stereo unspecified) — within 1.5-fold, 2.98 µM
- CCN(CC)S(=O)(=O)c1ccc(N2CCOCC2)c(NS(=O)(=O)c2ccc(C(C)C)cc2)c1 — within 1.5-fold, 5.51 µM
- COc1ccc(C)cc1S(=O)(=O)Nc1cc2c3c(c1)CCC(=O)N3CCC2 — 2-fold lower, 1.86 µM
- O=S1(=O)N=CN(Cc2cccc(F)c2)c2ccccc21 — within 1.5-fold, 3.02 µM
- COc1cccc(CNS(=O)(=O)c2cc(-c3cc(C)no3)ccc2C(C)C)c1 — within 1.5-fold, 5.07 µM
- O=C(Nc1ccccc1O)c1ccc(NS(=O)(=O)c2cccc3cccnc23)cc1 — 3.9-fold higher, 14.8 µM
- CN1c2ccc(-c3cccc(F)c3)cc2[C@H]2[C@H](CCN2S(=O)(=O)c2cccc(F)c2)[C@H]1CO — 1.7-fold higher, 6.4 µM
- CC1CCCCC1NC(=S)Nc1ccc(SC(F)F)cc1 (stereo unspecified) — within 1.5-fold, 4.15 µM
- C[C@@H]1CN([C@@H](C)CO)C(=O)c2cccc(NC(=O)c3ccncc3)c2O[C@@H]1CN(C)C — 3.2-fold higher, 12 µM
- O=C(NNS(=O)(=O)c1ccc(Cl)cc1)c1cccc(S(=O)(=O)N2CCOCC2)c1 — within 1.5-fold, 5.2 µM
- Cc1ccc(-c2cnc(C3CC3)o2)cc1S(=O)(=O)Nc1ccccc1 — within 1.5-fold, 3.08 µM
- O=C1COc2ccc(S(=O)(=O)Nc3ccc(F)cc3)cc2N1 — within 1.5-fold, 5.23 µM
- Cc1cccc(-c2nn(-c3ccccc3)cc2C(=O)Nc2cccc(S(=O)(=O)NC3=NCCC3)c2)c1 — 4.9-fold higher, 18.3 µM
- COc1ccc(S(=O)(=O)NCc2ccco2)c2ccccc12 — within 1.5-fold, 2.62 µM
- CC(=O)Nc1ccc(S(=O)(=O)C(C#N)c2nc3ccccc3nc2NCCO)cc1 (stereo unspecified) — 6.9-fold higher, 25.9 µM
- CSc1ccc(S(=O)(=O)NC2CC3CCC2C3)cc1 (stereo unspecified) — within 1.5-fold, 5.6 µM
- O=S(=O)(/N=C(/Nc1ccc(Cl)c(S(=O)(=O)N2CCOCC2)c1)c1ccc(F)cc1)c1ccccc1 — 4.3-fold lower, 0.864 µM
- COc1ccc(NC(=O)C(OC(=O)Cn2cnc3c2c(=O)n(C)c(=O)n3C)c2ccccc2)cc1Cl (stereo unspecified) — 2.1-fold higher, 7.87 µM
- CC(=O)c1ccc(NS(=O)(=O)c2ccc3c(c2)N(C)CCO3)cc1 — within 1.5-fold, 3.6 µM
- CC(c1ccco1)N(C(=O)CSc1ccc(Br)cc1)c1ccccn1 (stereo unspecified) — 3.8-fold higher, 14.4 µM
- COc1ccc(NS(=O)(=O)c2cc3c(cc2C)N(C)CCO3)c(OC)c1 — 2.1-fold lower, 1.81 µM
- C[C@@H]1CN([C@@H](C)CO)C(=O)Cc2cc(NC(=O)Nc3ccc4c(c3)OCO4)ccc2O[C@@H]1CN(C)C(=O)Nc1cccc2ccccc12 — 2.9-fold higher, 10.9 µM
- CCCC#Cc1ccc2c(c1)O[C@H](CN(C)C(=O)c1ccccn1)[C@@H](C)CN([C@H](C)CO)S2(=O)=O — 3-fold higher, 11.3 µM
- O=S(=O)(NC(=NCc1ccccc1)c1ccc(F)cc1)c1ccc(Cl)cc1 — 3.7-fold higher, 13.7 µM
- COc1cccc(S(=O)(=O)Nc2ccc(C(O)(C(F)(F)F)C(F)(F)F)cc2)c1 — within 1.5-fold, 4.24 µM
- CN(Cc1ccccc1)S(=O)(=O)c1ccc(NC(=S)NC(=O)C2CCCC2)cc1 — 2.6-fold higher, 9.75 µM
- CC(NC(=O)CNC(=S)N(Cc1cccs1)C1CCCC1)c1ccccc1 (stereo unspecified) — 2.6-fold lower, 1.47 µM
- CCn1nccc1C(=O)Nc1ccc(S(=O)(=O)NC23CC4CC(CC(C4)C2)C3)cc1 — 1.7-fold lower, 2.24 µM
- Cc1ccc(OP(=O)(Nc2cccc(C)c2)Oc2ccc(C)cc2)cc1 — 1.8-fold higher, 6.66 µM
- O=C(CCc1ccc(S(=O)(=O)NCCc2ccccc2)cc1)NCc1ccc2c(c1)OCO2 — 2.3-fold higher, 8.53 µM
- Cc1ccccc1NC(=O)c1ccc(NS(=O)(=O)c2cc(C(C)(C)C)cc(C)c2C)cc1 — lower, < 0.26 µM
- O=C(NC(=S)Nc1ccc(S(=O)(=O)NC2CCCCC2)cc1)c1cccs1 — 5.2-fold lower, 0.715 µM
- CC1CCCC(NS(=O)(=O)c2ccc3c(c2)OCCO3)C1C (stereo unspecified) — within 1.5-fold, 3.1 µM
- COc1ccc(OC)c(S(=O)(=O)N2CCC3(CC2)OCCN3S(=O)(=O)c2cccs2)c1 — 4.2-fold higher, 15.7 µM
- O=C(Cc1cccc2ccccc12)Nc1ccc(OC(F)F)c(Cl)c1 — within 1.5-fold, 4.28 µM
- Cc1cc(C)c(S(=O)(=O)N2CCN=C2c2ccccc2)cc1C — 2.7-fold higher, 10.3 µM
- CCc1ccc(S(=O)(=O)Nc2ccc(Cl)cn2)cc1 — 2.4-fold higher, 8.84 µM
- COc1ccc(NS(=O)(=O)c2cc(NC(=O)c3ccco3)ccc2N2CCCCC2)cc1 — lower, < 0.26 µM
- Cc1ccc(S(=O)(=O)Nc2cccc(-c3cn4ccsc4n3)c2)cc1 — 2.1-fold lower, 1.81 µM
- C[C@H](CO)N1C[C@H](C)[C@H](CN(C)Cc2ccc(C(=O)Nc3ccccc3N)cc2)Oc2ccc(NC(=O)Nc3ccc(F)cc3)cc2CC1=O — 2.6-fold higher, 9.84 µM
- CCCCNS(=O)(=O)c1ccc2nc(SCC(=O)Nc3sccc3C#N)[nH]c2c1 — 6.8-fold lower, 0.553 µM
- Cc1cc(C)c(S(=O)(=O)NCCn2ccc3ccccc32)c(C)c1 — 1.9-fold lower, 1.93 µM
- COc1cccc(C(=O)N2C[C@H]3[C@@H](c4ccccc42)[C@H](CO)N3C(=O)c2ccc(F)cc2)c1 — 9-fold higher, 33.6 µM
- C=CCN(CC=C)S(=O)(=O)c1ccc2nc(NC(=O)C(C)C)sc2c1 — 2.2-fold higher, 8.29 µM
- COc1ccc(NS(=O)(=O)c2cc(NC(=O)CCc3ccc(OC)c(OC)c3)ccc2N2CCOCC2)cc1 — 2.1-fold lower, 1.77 µM
- C[C@@H]1CN([C@H](C)CO)C(=O)c2cc(NC(=O)c3ccncc3)ccc2O[C@@H]1CN(C)S(=O)(=O)c1ccc(Cl)cc1 — 2.3-fold lower, 1.63 µM
- CCOc1cc(C)c(Cl)cc1S(=O)(=O)NCC1CCCO1 (stereo unspecified) — 3.1-fold lower, 1.2 µM
- COc1ccc(Br)cc1CNC(=O)Nc1cccs1 — 4.1-fold higher, 15.5 µM
- COc1ccc(C)cc1S(=O)(=O)NCCC1=CCCCC1 — 8.1-fold lower, 0.465 µM
- CCOc1cc(S(=O)(=O)Nc2cc(C)cc(C)c2)ccc1Cl — 1.9-fold lower, 1.99 µM
- S=C(Nc1ccc(Cl)c(Cl)c1)NC1CCCCC1 — 2.7-fold lower, 1.37 µM
- Cc1ccc(N(CC(=O)NCc2cccs2)S(=O)(=O)c2cccs2)cc1 — 7.7-fold higher, 29 µM
- COC(=O)c1ccc(Nc2nnc(-c3ccc(C)c(S(=O)(=O)NCC4CCCO4)c3)c3ccccc23)cc1 (stereo unspecified) — 4.9-fold lower, 0.761 µM
- CCNS(=O)(=O)c1ccc(NS(=O)(=O)c2cc(C)ccc2C)cc1 — 2-fold lower, 1.86 µM
- CCOC(=O)c1cc(S(=O)(=O)NCCc2ccccc2)cn1C — within 1.5-fold, 3.84 µM
- O=S1(=O)CCC(NS(=O)(=O)c2ccc3ccccc3c2)C1 (stereo unspecified) — 3.6-fold higher, 13.4 µM
- CCOc1cc(C)c(S(=O)(=O)Nc2ccc3cn[nH]c3c2)cc1C — 3-fold lower, 1.24 µM
- CCOc1ccc(Br)cc1S(=O)(=O)NC1CCCC1 — 2.9-fold lower, 1.29 µM
- Cc1cc(C)cc(C(O)c2ncc(-c3ccccc3F)[nH]2)c1 (stereo unspecified) — 1.5-fold lower, 2.5 µM
- O=C(Cc1ccccc1)N1C[C@@H]2[C@H](c3ccccc31)[C@H](CO)N2C(=O)Nc1ccc(F)cc1 — within 1.5-fold, 4.71 µM
- CC12CCC3C(CCC4(O)CC(O)CCC34C=O)C1(O)CCC2C1=CC(=O)OC1 (stereo unspecified) — 1.6-fold lower, 2.4 µM
- Cc1ccc(NS(=O)(=O)c2cc(Br)cnc2N)cc1C — 1.6-fold lower, 2.36 µM
- CC(C)(C)NS(=O)(=O)c1ccc(OCC(=O)Nc2ccc3c(c2)OCCO3)cc1 — 3.9-fold higher, 14.7 µM
- COc1ccc(C(C)(C)C)cc1S(=O)(=O)n1ccnc1C — within 1.5-fold, 4.82 µM
- C[C@@H]1CN([C@H](C)CO)C(=O)c2cccc(NC(=O)c3nc4ccccc4s3)c2O[C@@H]1CN(C)Cc1ccc(C(=O)Nc2ccccc2N)cc1 — 4.7-fold higher, 17.7 µM
- CCC(C)c1ccc(NC(=S)NCc2cccs2)cc1 (stereo unspecified) — 2.7-fold higher, 10.1 µM
- C[C@@H]1CN([C@@H](C)CO)C(=O)Cc2cc(NC(=O)Nc3ccc(C(F)(F)F)cc3)ccc2O[C@@H]1CN(C)C(=O)Nc1cccc2ccccc12 — within 1.5-fold, 4.39 µM
- Cn1cc(CC(=O)Nc2cccc(C#N)c2)c2ccccc21 — within 1.5-fold, 3.57 µM
- CCn1cc(S(=O)(=O)CC(=O)Nc2ccc(C)cc2)c2ccccc21 — 4-fold higher, 15.1 µM
- N#CC1c2ccccc2-c2ccccc2N1C(=O)c1ccccc1 (stereo unspecified) — 2.2-fold higher, 8.39 µM
- Cc1ccccc1S(=O)(=O)N1CC[C@@H]2[C@@H](CO)Nc3ccc(-c4ccc(F)cc4)cc3[C@@H]21 — 3.8-fold lower, 1 µM
- C[C@@H]1CN([C@@H](C)CO)C(=O)c2cccc(N(C)C)c2O[C@@H]1CN(C)Cc1ccc(C(=O)Nc2ccccc2N)cc1 — within 1.5-fold, 3.25 µM
- Cc1cc(C(C)(C)C)cc(S(=O)(=O)NCCO)c1C — 3.2-fold lower, 1.16 µM
- COc1ccc(OC)c(S(=O)(=O)N/N=C\c2ccc3c(c2)OCO3)c1 — 7.4-fold lower, 0.508 µM
- COC(=O)c1ccc(C)c(NS(=O)(=O)c2ccc(OC)c(OC)c2)c1 — 5.7-fold higher, 21.5 µM
- CCN(CC)C(=O)CC(c1ccc(N(C)C)cc1)c1c(OC)cc(OC)c2c(-c3ccccc3)cc(=O)oc12 (stereo unspecified) — within 1.5-fold, 3 µM
- CCN(CC(=O)NCc1cccs1)C(=O)c1cccc(S(=O)(=O)Nc2cccc(C)c2)c1 — 1.6-fold higher, 6.04 µM
- Cc1ccc(-c2n[nH]c(=O)c3ccccc23)cc1S(=O)(=O)NCCN1CCOCC1 — 4.1-fold higher, 15.4 µM
- CCc1c(C(=O)NC2CCCCC2)[nH]c(C)c1C(C)=O — within 1.5-fold, 4.84 µM
- Cc1ccc(S(=O)(=O)Nc2ccc3c(c2)C(=O)N([C@@H](C)CO)C[C@H](C)[C@H](CN(C)C(=O)Nc2ccc(F)cc2)OCCCC[C@@H](C)O3)cc1 — 2-fold lower, 1.86 µM
- COc1ccc(NP(=O)(Oc2ccc(Cl)cc2)Oc2ccc(Cl)cc2)cc1OC — 2-fold higher, 7.43 µM
- COc1ccccc1NS(=O)(=O)c1cc(NC(=O)c2cccs2)ccc1N1CCOCC1 — 4.2-fold lower, 0.895 µM
- CC(C)CNS(=O)(=O)c1ccc(CCC(=O)NCCC2=CCCCC2)cc1 — 6.1-fold higher, 23 µM
- COc1ccc(S(=O)(=O)Nc2ccc(S(=O)(=O)N3CCOCC3)cc2)cc1 — 3.9-fold higher, 14.7 µM
- CCOC(=O)c1c(NC(=O)c2ccccc2N(C)S(=O)(=O)c2ccccc2)sc2c1CCCC2 — 3.5-fold higher, 13.3 µM
- COc1ccc(Br)cc1S(=O)(=O)N1CCN=C1c1ccccc1 — 2.5-fold higher, 9.26 µM
- O=S(=O)(Nc1cccc(-n2cnnn2)c1)c1cc(Br)ccc1Br — within 1.5-fold, 4.94 µM
- COc1ccc(S(=O)(=O)NC2CCCCC2)c(C)c1C — 2.4-fold lower, 1.57 µM
- CN1C(=O)c2cc(NC(=O)Cc3ccccc3)ccc2OC[C@@H]2O[C@H](CC(=O)NCc3ccc(Cl)cc3)CC[C@@H]21 — lower, < 0.26 µM
- O=S(=O)(NCCC1=CCCCC1)c1ccccc1Br — 1.8-fold lower, 2.03 µM
